This assay deals with A. fumigatus. Put plainly: Second experiment: survival of immune-suppressed balb-c mice infected intranasally with A. fumigatus conidia. In kind it is in vivo, Aspergillus fumigatus. Details: animals that had died by day 6 after infection: dose or concentration left out as unconfirmed. The procedure: In a second experiment, male balb-c mice were utilized. The animals of all groups were immune-suppressed using 100 mg/kg body weight cyclophosphamide at day −4, −1, 0, 2, 5 and 8. On day −1, the animals received 100 mg/kg cyclophosphamide i.p. and 200 mg/kg cortisone acetate subcutaneous (24±2 hours before infection). Additionally, the animals were treated by inhalation of itraconazole using the same inhalation device as described in the study above. At day 0, the animals were infected intranasally with 2.5×104 A. fumigatus conidia.
Additionally, one group of mice used as reference group was treated with Amphotericin B i.p. using 3 mg/kg daily.
The drug effect was assessed as the number of surviving animals. As expected, 9 out of 12 control animals had already died on day 6 after infection and the remaining animals died with the exception of one until day 9. For animals treated as decribed above, i.e. using the 10% aerosol of itraconazole twice daily, a strong effect was seen.

As for `C[C@@H]1[C@H](O)[C@@H](C)/C=C/C=C/C=C/C=C/C=C/C=C/C=C/[C@H](O[C@@H]2O[C@H](C)[C@@H](O)[C@H](N)[C@@H]2O)C[C@@H]2O[C@](O)(C[C@@H](O)C[C@@H](O)[C@H](O)CC[C@@H](O)C[C@@H](O)CC(=O)O[C@H]1C)C[C@H](O)[C@H]2C(=O)O` [Amphothericin B, Amphotericin B], the “animals that had died by day 6 after infection” value (12 per group, control animals) was found to be 3. Also, the “animals that had died at the end of the observation period” value (14 days observation, itraconazole 10% aerosol twice daily, Amphotericin B i.p. 3 mg/kg daily) is 9 out of 12.

These data come from patent US20110190245A1, “NANOSUSPENSION WITH ANTIFUNGAL MEDICATION TO BE ADMINISTERED VIA INHALATION WITH IMPROVED IMPURITY PROFILE AND SAFETY” (priority 2008, published 2011).
